Experimental data: patent US11091591B2, “Carbohydrate ligands that bind to antibodies against glycoepitopes of glycosphingolipids” (UNIVERSITÄT BASEL, priority 2015, dated 2021)
Entries after “also recorded” stand apart in the source; their conditions may differ. Values belong to the substance of their own block, whether it stands above or below them.

Legend:
[1] = target: anti-GD1b IgG antibodies of neuropathy patient serum; assay: Competitive binding ELISA (GanglioCombi), GD1b-coated wells, patient serum IgG; design: species or system human; conditions: serum P22 (IgG), dilution 1:50; table prints GD1a (IgG)
Experimental: (§1) The synthesized carbohydrate polymers 6 (GM1a epitope), 26 (GD1b epitope), and 34 (GT1a epitope) were tested in the GanglioCombi(-Light) ELISA and/or, in case of compound 6, the anti-GM1 ELISA (all kits from Bühlmann Laboratories, Schönenbuch, Switzerland). The 96 well microtiter plates coated with purified gangliosides from bovine cauda equina were washed two times with washing buffer (300 μl/well) before adding the carbohydrate polymers in eight different concentrations, 25 μl/well. The patient sera containing anti-ganglioside IgG or IgM antibodies were added in the appropriate dilutions, 25 μl/well (2× concentrated), to obtain a total of 50 μl volume per well. […] Finally, a stop solution (0.25 M sulfuric acid) was added (100 μl/well) and the degree of colorimetric reaction was determined by absorption measurement at 450 nm with a microplate reader (Spectramax 190, Molecular Devices, California, USA).
(§2) As indicated, the synthesized carbohydrate polymers 6 (GM1a epitope), 26 (GD1b epitope), and 34 (GT1a epitope) were tested in the GanglioCombi(-Light) ELISA and/or, in case of compound 6, the anti-GM1 ELISA (all kits from Bühlmann Laboratories, Schönenbuch, Switzerland). […] After a washing step ganglioside-bound antibodies (IgM/IgG) were detected with horseradish peroxidase labeled anti-human IgM or anti-human IgG antibodies, followed by a colorimetric reaction. […]

[2] = system: anti-GM1a IgM antibodies of neuropathy patient sera; assay: Competitive binding ELISA (GanglioCombi/anti-GM1), GM1a-coated wells, patient sera IgM; design: species or system human
Experimental: as §1, §2

[3] = system: anti-GM1a IgG antibodies of neuropathy patient sera; assay: Competitive binding ELISA (GanglioCombi/anti-GM1), GM1a-coated wells, patient sera IgG; design: species or system human
Experimental: as §1, §2

[4] = system: anti-GQ1b IgG antibodies of neuropathy patient sera; assay: Competitive binding ELISA (GanglioCombi), GQ1b-coated wells, patient sera IgG; design: species or system human
Experimental: The synthesized carbohydrate polymers 6 (GM1a epitope), 26 (GD1b epitope), and 34 (GT1a epitope) were tested in the GanglioCombi(-Light) ELISA and/or, in case of compound 6, the anti-GM1 ELISA (all kits from Bühlmann Laboratories, Schönenbuch, Switzerland). The 96 well microtiter plates coated with purified gangliosides from bovine cauda equina were washed two times with washing buffer (300 μl/well) before adding the carbohydrate polymers in eight different concentrations, 25 μl/well. The patient sera containing anti-ganglioside IgG or IgM antibodies were added in the appropriate dilutions, 25 μl/well (2× concentrated), to obtain a total of 50 μl volume per well. The plate was covered with a plate sealer and incubated for 2 h at 4-8° C. The wells were washed three times with wash buffer (300 μl/well) before either the anti-human IgM antibody-horseradish peroxidase conjugate or the anti-human IgG antibody-horseradish peroxidase conjugate was added (100 μl/well). The plate was incubated for 2 h at 4-8° C. […] Finally, a stop solution (0.25 M sulfuric acid) was added (100 μl/well) and the degree of colorimetric reaction was determined by absorption measurement at 450 nm with a microplate reader (Spectramax 190, Molecular Devices, California, USA).
As indicated, the synthesized carbohydrate polymers 6 (GM1a epitope), 26 (GD1b epitope), and 34 (GT1a epitope) were tested in the GanglioCombi(-Light) ELISA and/or, in case of compound 6, the anti-GM1 ELISA (all kits from Bühlmann Laboratories, Schönenbuch, Switzerland). […] After a washing step ganglioside-bound antibodies (IgM/IgG) were detected with horseradish peroxidase labeled anti-human IgM or anti-human IgG antibodies, followed by a colorimetric reaction. Successful competition of the compounds with gangliosides led to a decrease in measured OD450 nm, (optical density), because they block the binding sites of anti-ganglioside antibodies, preventing their binding to immobilized gangliosides. […] IgG and IgM antibody titers were determined for each serum in preliminary experiments. […]

[5] = system: mouse monoclonal anti-HNK-1 (anti-MAG) IgM antibody; assay: Competitive binding anti-MAG ELISA, MAG-coated wells
Experimental: (§3) The synthesized carbohydrate polymer 86 (HNK-1 epitope mimetic 58) was tested in the anti-MAG ELISA (kit from Bühlmann Laboratories, Schönenbuch, Switzerland). The assay protocol was performed according to the one described above for the GanglioCombi(-Light) ELISA. To determine the in vitro IC50 of polymer 86, the assay was performed with co-incubation of polymer (25 μl/well) and a mouse monoclonal anti-HNK-1 (anti-MAG) IgM antibody (25 μl/well) at a final dilution of 1:1000. To determine the in vivo efficacy of polymer 86, the assay was performed by incubation of mouse plasma diluted 1:100 (50 μl/well). Both, the mouse monoclonal anti-HNK-1 (anti-MAG) IgM and anti-HNK-1 (anti-MAG) IgM in plasma of immunized BALB/c mice (pre- and post-treatment) were detected with goat anti-mouse IgM HRP conjugate (Sigma Aldrich, A8786) diluted 1:10′000.

[6] = system: anti-HNK-1 (anti-MAG) IgM antibodies; assay: Immunological mouse model for anti-MAG neuropathy; assay type: in vivo; conditions: immunized BALB/c mice, 10 mg/kg intravenous, up to 168 h (seven days) after administration
Experimental: as §3
Six gender matched BALB/c wild type mice at the age of 6 weeks were injected subcutaneously at multiple sites on the lower back with a total of 100 μg of the glycosphingolipids SGPG and SGLPG purified from bovine cauda equina (both glycolipids contain the HNK-1 carbohydrate epitope). The isolation of glycolipids was performed according to a protocol described by Burger et al. (Journal of Immunological Methods 1991, 140, 31-36). […] Mouse plasma samples were analyzed by the above described anti-MAG ELISA.

IC50 [1]: 313 µM
Substance: GD1b Polymer [Compound 26]

IC50 ([2]; serum P3, GM1a (IgM), dilution 1:50): 375 nM
IC50 ([2]; serum P4, GM1a (IgM), dilution 1:400): 0.0594 nM
IC50 ([3]; serum P21, GM1a (IgG), dilution 1:1'300): 0.219 µM
IC50 ([3]; serum PP IgG Pos., GM1a (IgG), dilution 1:1'200): 28 µM
Substance: GM1a Polymer [Compound 6]

IC50 ([4]; serum EK-GCO 1803, GQ1b/GT1a (IgG), dilution 1:300): 12.5 µM
IC50 ([4]; serum P23, GQ1b/GT1a (IgG), dilution 1:50): 348 µM
Substance: GT1a Polymer [Polymer 34]
neutralization of patient sera directed against GQ1b ([4]; sera EK-GCO 1803 (IgG) and P23 (IgG)): neutralized

inhibition of binding of mouse monoclonal anti-HNK-1 IgM to the HNK-1 epitope on MAG [5]: nanomolar concentrations
IC50 ([5]; mouse anti-HNK-1 antibody, HNK-1 (IgM), final dilution 1:1000): 0.0513 ± 0.0442 µM
Substance: HNK-1 Polymer [Compound 86]
reduction of anti-HNK-1 (anti-MAG) IgM antibody levels [6]: significantly reduced; also recorded: significant reduction
